Measured values: patent publication US20230295260A1, “GLP RECEPTOR AGONISTS” (HEPTARES THERAPEUTICS LIMITED, priority 2020, published 2023)
Entries after “also recorded” stand apart in the source; their conditions may differ. Non-standard residues stand in square brackets, D forms with d. Residues, ends and D or L forms follow the SMILES beside them. *: point of attachment. Malonyl(2,2-Me2,histaminyl) = CC(C)(C(=O)NCCc1cnc[nH]1)C(=O)*; Ala(1H-tetrazol-5-yl) = N[C@@H](Cc1nnn[nH]1)C(=O)O; αMePhe(2-F) = C[C@](N)(Cc1ccccc1F)C(=O)O; Nle = CCCC[C@H](N)C(=O)O; Alloc = C=CCOC(=O)*

How the values were obtained:
[1] = molecular target: T1, mouse GLP2 receptor (Mus musculus, UniProt Q5IXF8); assay: cAMP accumulation assay (HTRF), functional agonism of mouse GLP2 receptor in HEK cells; format: cell-based; details: HEK cells transiently transfected, 45 min 37° C.
T1 construct: expressed in transfected cells; host or cells: HEK cells, transient transfection with GeneJuice
T1 sequence (Q5IXF8 1-512): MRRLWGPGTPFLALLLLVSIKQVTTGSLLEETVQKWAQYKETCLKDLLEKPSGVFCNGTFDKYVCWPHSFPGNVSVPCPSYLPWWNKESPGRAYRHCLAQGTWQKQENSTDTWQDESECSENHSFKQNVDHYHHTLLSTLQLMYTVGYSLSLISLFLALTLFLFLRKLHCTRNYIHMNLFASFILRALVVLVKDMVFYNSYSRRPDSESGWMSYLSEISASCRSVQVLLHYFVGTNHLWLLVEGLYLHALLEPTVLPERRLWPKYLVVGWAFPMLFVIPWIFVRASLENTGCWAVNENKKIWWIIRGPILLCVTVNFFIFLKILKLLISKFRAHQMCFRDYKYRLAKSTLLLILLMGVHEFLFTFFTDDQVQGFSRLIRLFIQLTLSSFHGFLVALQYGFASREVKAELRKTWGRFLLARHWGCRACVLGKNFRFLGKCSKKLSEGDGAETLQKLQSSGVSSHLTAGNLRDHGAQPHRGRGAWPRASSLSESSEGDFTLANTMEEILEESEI

[2] = molecular target: T2, mouse GLP1 receptor (Mus musculus, UniProt O35659); assay: cAMP accumulation assay (HTRF), functional agonism of mouse GLP1 receptor in HEK cells; format: cell-based; details: HEK cells transiently transfected, 45 min 37° C.
T2 construct: expressed in transfected cells; host or cells: HEK cells, transient transfection with GeneJuice
T2 sequence (O35659 22-463): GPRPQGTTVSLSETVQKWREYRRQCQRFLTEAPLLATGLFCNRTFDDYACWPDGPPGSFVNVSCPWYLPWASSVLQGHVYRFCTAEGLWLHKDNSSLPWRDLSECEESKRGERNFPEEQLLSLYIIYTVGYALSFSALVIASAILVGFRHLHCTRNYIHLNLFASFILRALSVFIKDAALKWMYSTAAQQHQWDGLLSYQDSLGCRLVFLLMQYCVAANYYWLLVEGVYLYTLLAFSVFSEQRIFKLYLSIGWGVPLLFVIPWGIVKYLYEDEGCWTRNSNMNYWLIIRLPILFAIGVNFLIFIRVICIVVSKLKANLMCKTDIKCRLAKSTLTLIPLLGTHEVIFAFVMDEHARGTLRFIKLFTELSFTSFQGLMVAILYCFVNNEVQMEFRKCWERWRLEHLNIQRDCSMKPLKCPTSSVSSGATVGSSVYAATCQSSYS

[3] = tested on: C57BL/6J male mice; assay: Effect on glucose tolerance (OGTT) in normal mice (FIG. 3); format: in vivo, mouse; details: mice fasted 6 h, 270 nmol/kg sc 1 hour before 2 g/kg oral glucose (liraglutide 200 ug/kg iv)
Protocol: One hour before glucose challenge, Example 1 or 3 (270 nmol/kg) or vehicle (0.1% Tween80 in PBS) was administered as a single subcutaneous injection. […] Serial blood glucose measurements were taken at baseline and at timepoints post oral glucose challenge. (A) Time course of blood glucose levels. N=6 animals / grp. Mean +/-SEM.
C57BL/6J male mice (Charles River, Italy, ~8w) are fasted for 6 hours on the day of testing with free access to drinking water. Prior to drug dosing, pre-dose blood glucose measurements are taken using a glucometer (ACCU-CHEK performa, Roche Diagnostic GmbH). Animals are dosed with either the vehicle (0.1% Tween80 in PBS) or compound (270 nmol/kg) via subcutaneous injection. […] 1 hour after dosing, mice are given 2 g/kg oral gavage of glucose and blood is sampled at defined time points for analysis of blood glucose levels. Timepoints of sampling: t=0 (prior to glucose dosing), 15 mins, 30 mins, 60 mins, 120 mins and 180 mins.

[4] = molecular target: T3, human GLP2 receptor (Homo sapiens, UniProt O95838); assay: cAMP accumulation assay (HTRF), functional agonism of human GLP2 receptor in HEK cells;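 further: HEK cells transduced via BacMam to express human GLP2 receptor, agonist-stimulated cAMP measured by HTRF after 45 min at 37 °C in HBSS with 0.5 mM IBMX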
T3 sequence (O95838 1-553): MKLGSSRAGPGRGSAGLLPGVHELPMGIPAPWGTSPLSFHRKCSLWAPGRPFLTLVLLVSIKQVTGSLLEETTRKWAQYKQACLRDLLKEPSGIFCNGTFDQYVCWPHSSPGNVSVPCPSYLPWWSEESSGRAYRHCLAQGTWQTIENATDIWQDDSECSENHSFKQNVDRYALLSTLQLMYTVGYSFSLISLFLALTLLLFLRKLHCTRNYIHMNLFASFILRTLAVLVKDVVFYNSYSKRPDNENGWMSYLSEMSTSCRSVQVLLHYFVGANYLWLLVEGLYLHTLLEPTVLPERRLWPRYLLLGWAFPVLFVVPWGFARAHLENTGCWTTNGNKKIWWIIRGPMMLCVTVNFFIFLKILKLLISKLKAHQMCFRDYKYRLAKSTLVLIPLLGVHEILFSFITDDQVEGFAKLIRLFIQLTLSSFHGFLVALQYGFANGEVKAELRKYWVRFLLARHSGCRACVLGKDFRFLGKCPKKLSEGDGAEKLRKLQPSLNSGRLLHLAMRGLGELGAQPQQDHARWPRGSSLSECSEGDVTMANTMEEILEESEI

[5] = tested on: C57BL/6J male mice; assay: Dose response effect on intestinal mass in normal mice, 7 day dosing (FIG. 2); format: in vivo, mouse; details: daily sc
Protocol: The enhancement of the small bowel wet weight (over vehicle) is plotted as a function of the peptide dose. […] N=6 animals I grp.
C57BL/6J male mice (Charles River, Italy, ~8 weeks) are randomly allocated to the treatment group based on the baseline body weights. Animals are given free access to food and water during the whole duration of the study. Mice are dosed daily with the vehicle or test peptides via subcutaneous injection. On day 7, animals are sacrificed and segments from the upper small intestine (15 cm segment from the pylorus) are collected and weighed (see Example B).

[6] = molecular target: T4, human GLP1 receptor (Homo sapiens, UniProt P43220); assay: cAMP accumulation assay (HTRF), functional agonism of human GLP1 receptor in HEK cells; format: cell-based; details: HEK cells, human GLP1 receptor BacMam, 45 min 37° C.
T4 construct: expressed in transfected cells; host or cells: HEK cells, BacMam virus transduction
T4 sequence (P43220 24-463): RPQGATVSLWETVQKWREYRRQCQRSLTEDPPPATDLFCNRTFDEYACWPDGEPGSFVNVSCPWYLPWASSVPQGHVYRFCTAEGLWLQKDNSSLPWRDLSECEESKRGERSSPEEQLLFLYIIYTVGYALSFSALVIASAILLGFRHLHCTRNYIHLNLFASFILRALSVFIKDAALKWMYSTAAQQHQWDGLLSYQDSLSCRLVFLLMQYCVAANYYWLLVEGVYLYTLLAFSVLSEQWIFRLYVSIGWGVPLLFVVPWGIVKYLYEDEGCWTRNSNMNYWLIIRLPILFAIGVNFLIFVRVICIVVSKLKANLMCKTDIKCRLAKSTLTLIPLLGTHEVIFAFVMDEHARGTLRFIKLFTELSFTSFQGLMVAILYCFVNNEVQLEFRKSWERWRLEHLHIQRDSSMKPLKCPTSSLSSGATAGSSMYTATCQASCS
Protocol: The functional activity of the peptides were assessed using a HTRF cAMP assay. pEC50 values are quoted.
cAMP production upon agonist stimulation of human GLP2 or GLP1 receptor was assessed utilizing HiRange cAMP kit (Cisbio). In brief, HEK cells were infected with either human GLP2 or GLP1 receptor BacMam virus for 24 hours and frozen for later use in the assay. […] Cells were prepared in the assay buffer (HBSS (Lonza) supplemented with 0.5 mM IBMX (Tocris)). After 45 min incubation at 37° C., the reaction was stopped by addition of the HTRF detection reagents in the lysis buffer provided in the kit.

[7] = tested on: C57BL/6J male mice; assay: Effect on intestinal wet weight in normal mice (FIG. 1); format: in vivo, mouse; details: once daily sc 270 nmol/kg (liraglutide iv 200 ug/kg), sacrificed on day 3, vs. vehicle
Protocol: Mice were sacrificed on day 3 and the wet weight of the small intestine was quantified. GLP-2 active peptides show significant enhancement of the small intestinal weight. […] N=6 animals / grp. *p < 0.05 vs. vehicle
C57BL/6J male mice (Charles River, Italy, ~8 weeks) are randomly allocated to the treatment group based on the baseline body weights. Animals are given free access to food and water during the whole duration of the study. Mice are dosed daily with the test compounds via subcutaneous injection. […] The abdominal cavity will be opened and the intestinal tissue is excised carefully to avoid perforation. Tissue from the upper small intestine (15 cm segment from the pylorus) is collected. The bowel is cleaned by flushing through with ice cold PBS to remove any feces.

Emax ([1]; HEK293, read-out: Mouse GLP-2R agonist cAMP Emax): 103% | EC50 ([1]; read-out: Mouse GLP-2R agonist cAMP pEC50 (converted)): 0.501 nM | Emax ([2]; HEK293, read-out: Mouse GLP-1 R agonist cAMP Emax): 99.5% | EC50 ([2]; read-out: Mouse GLP-1 R agonist cAMP pEC50 (converted)): 0.398 nM | EC50 [4]: 0.0158 nM | Emax ([4]; HEK293, read-out: Human GLP-2R agonist cAMP Emax): 102% | Emax ([6]; HEK293, read-out: Human GLP-1R agonist cAMP Emax): 99.2% | EC50 ([6]; read-out: Human GLP-1R agonist cAMP pEC50 (converted)): 0.0794 nM
Structure (SMILES): C=CCOC(=O)NCCCC[C@H](NC(=O)[C@H](CC(C)C)NC(=O)[C@H](CC(=O)O)NC(=O)[C@H](CC(C)C)NC(=O)[C@@H](NC(=O)[C@@H](NC(=O)[C@@H](Cc1ccccc1)NC(=O)[C@H](CCCC)NC(=O)[C@H](CCC(=O)O)NC(=O)[C@H](CC(=O)O)NC(=O)[C@H](CO)NC(=O)[C@](C)(Cc1ccccc1F)NC(=O)[C@H](CO)NC(=O)CNC(=O)[C@H](Cc1nn[nH]n1)NC(=O)C(C)(C)C(=O)NCCc1c[nH]cn1)[C@@H](C)O)[C@@H](C)CC)C(=O)N[C@@H](C)C(=O)N[C@@H](C)C(=O)N[C@@H](CCCCN)C(=O)N[C@@H](CC(=O)O)C(=O)N[C@@H](Cc1ccccc1)C(=O)N[C@H](C(=O)N[C@@H](CC(N)=O)C(=O)N[C@@H](Cc1c[nH]c2ccccc12)C(=O)N[C@@H](CC(C)C)C(=O)N[C@H](C(=O)N[C@@H](CCC(N)=O)C(=O)N[C@H](C(=O)N[C@@H](CCCCN)C(=O)N[C@H](C(=O)N[C@H](C(=O)N[C@@H](CC(=O)O)C(N)=O)[C@@H](C)O)[C@@H](C)CC)[C@@H](C)O)[C@@H](C)CC)[C@@H](C)CC [Example 3] ({Malonyl(2,2-Me2,histaminyl)}-[Ala(1H-tetrazol-5-yl)]GS[αMePhe(2-F)]SDE[Nle][dF]TILDLK(Alloc)AAKDFINWLIQTKITD-NH2)
peak blood glucose concentration in OGTT [3]: significantly reduced | enhancement of small bowel wet weight (over vehicle) as a function of dose [5]: greater maximal enhancements in small intestinal wet weight compared to Teduglutide; also recorded: dose dependent enhancements in the wet weight of the small intestine | wet weight of the small intestine [7]: superior enhancements in intestinal weight compared to Teduglutide; also recorded: Significant enhancement of intestinal wet weight
